Test results from patent publication US12485118B2, “Combinations of GLP-1R and THRβ agonists and methods of use thereof” (Terns Pharmaceuticals, Inc., priority 2023, dated 2025).
Entries after “also recorded” stand apart in the source; their conditions may differ. Where two headings read alike, the source gives them in different places.

Assays:
[1] = Plasma pharmacokinetics of Compound 9 and orforglipron in DIO hGLP-1R mice; details: for AUC(0-t) / Cmax: hGLP-1R transgenic (expressing human GLP-1R)
Protocol: Test compounds were formulated in vehicle (10% [v/v]Solutol HS15+90% [v/v]saline) and mice were treated QD PO for 21 days with vehicle, Compound 9 (3 mg/kg), orforglipron (0.2 and 2 mg/kg), and Compound 9 (3 mg/kg) in combination with orforglipron (0.2 mg/kg). Body weight and food intake were measured daily, and mice were maintained on HFD throughout the study period. On Day 20 of the study, plasma samples were collected at predose (O), 2-, 4-, 8-, and 24-hours postdose for pharmacokinetic analyses of Compound 9, orforglipron, and combination treatment groups. Body mass composition was assessed on Day 19. Liver was collected and weighed at study termination and portions were preserved for steatosis assessment by histology. Subcutaneous fat was collected and weighed at study termination. A sample of subcutaneous fat tissue was assessed for UCP-1 expression by qPCR and Western blot analyses.

male DIO mice [2] = experiment: 6 weeks of Compound 9 alone and in combination with semaglutide: body weight, food intake, body composition (EchoMRI) in male DIO mice at thermoneutrality; assay type: in vivo, mouse; details: Compound 9 6 mg/kg PO combined with Semaglutide 30 nmol/kg SC
Protocol: (§1) Male C57BL/6JRj mice (5 weeks of age, n=70) were fed a high fat diet (n=60, 60% HFD, D12492, Ssniff) for 24 weeks, or a lean-chow diet (n=10, Altromin 1324) before treatment start. HFD animals were randomized during week -1 based on body weight, glucose levels and fat tissue mass into 5 treatments groups. Lean mice (group 1) were treated with vehicle (QD+QD, PO+SC) and DIO mice were treated (QD+QD, PO+SC) as follow: group 2 received vehicle (PO+SC), group 3 received Compound 9 6 mg/kg, PO+vehicle (SC), group 4 received Semaglutide (30 nmol/kg, SC)+vehicle (PO), group 5 received Compound 9 (6 mg/kg, PO)+Semaglutide (30 nmol/kg, SC) and group 6 received Tirzepatide (30 nmol/kg, SC)+vehicle (PO). Body weight, food and water intake were measured daily from day -3, body composition (EchoMRI) was measured during week -1 and week 6; energy expenditure was assessed at study day 5-7 and at study day 34-36. Fasting blood glucose and insulin levels were measured at baseline and termination, while an oral glucose tolerance test was performed at week 4. At termination, the M gastrocnemius muscle was weighted and collected for RNAseq analysis, while plasma, brain, liver, BAT, epidydimal and subcutaneous WAT depots were collected for sponsor.

male DIO mice [3] = experiment: Glycemic control: oral glucose tolerance test and plasma insulin in male DIO mice at thermoneutrality; assay type: in vivo, mouse; details: week 6
Protocol: On the day of the OGTT, random blood glucose and body weight of the mice are measured, mice are dosed with corresponding compounds or vehicle in the morning before fasting, then the mice are fasted for 6 hours, basal fasting glucose is measured by tail vein nick thereafter. Glucose is orally gavaged with 2 g/kg at a dose volume of 5 mL/kg. Blood glucose levels are measured at 0 (pre-dose), 15-, 30-, 60-, and 120-min post glucose dosing. The second dose is administrated after OGTT treatment.
Male C57BL/6JRj mice (5 weeks of age, n=70) were fed a high fat diet (n=60, 60% HFD, D12492, Ssniff) for 24 weeks, or a lean-chow diet (n=10, Altromin 1324) before treatment start. HFD animals were randomized during week -1 based on body weight, glucose levels and fat tissue mass into 5 treatments groups. […] Body weight, food and water intake were measured daily from day -3, body composition (EchoMRI) was measured during week -1 and week 6; energy expenditure was assessed at study day 5-7 and at study day 34-36. Fasting blood glucose and insulin levels were measured at baseline and termination, while an oral glucose tolerance test was performed at week 4. […]

DIO hGLP-1R mice = experiment: Compound 9 in combination with orforglipron in DIO hGLP-1R mice: body weight, food intake, body mass composition, subcutaneous fat, liver weight; assay type: in vivo, mouse; details: Compound 9 3 mg/kg, orforglipron 0.2 and 2 mg/kg, combination 3 + 0.2 mg/kg; for body weight changes from baseline over time: PO QD 21 days; for terminal subcutaneous fat: study termination
Protocol: DIO hGLP-1R mice were housed at room temperature (21-25° C.) with a relative humidity of 40-70%. Temperature and relative humidity were monitored and recorded twice daily. An electronic time-controlled lighting system was used to provide a 12 h light/12 h dark cycle, 19:00 pm-7:00 am, lights out and enrichment toys were provided. The mice were fed high fat diet (HFD, Research Diets 12492, 60% kca, 1% fat) for >50 weeks to induce obesity. Mice were acclimated to once-daily (QD) oral dosing (per os, PO) for 1 week with body weight and food intake measured on consecutive 4 days prior to dosing start (Day 1). Body mass composition was measured by EchoMRI (Bruker Minispec LF90II) on Day 0 and mice were randomized to treatment groups (Table 5-1) based on baseline body weight, food intake, and body composition.
Body mass composition was assessed on Day 19. […] Subcutaneous fat was collected and weighed at study termination.

[4] = system: uncoupling protein 1 (UCP-1) expression in subcutaneous adipose tissue; experiment: UCP-1 expression in subcutaneous adipose tissue of DIO mice; assay type: in vivo, mouse
Protocol: Body weight, food and water intake are measured daily. Body composition is measured using EchoMRI. Subcutaneous fat is collected and weighed at study termination.
as §1, with “At termination, the M gastrocnemius muscle was weighted and collected for RNAseq analysis, while plasma, brain, liver, BAT, epidydimal and subcutaneous WAT depots were collected for sponsor.” left out

male DIO mice [5] = experiment: Energy expenditure (heat production, RER, oxygen consumption) in male DIO mice at thermoneutrality; assay type: in vivo, mouse
Protocol: as §1

rodent GLP-1R = target: T1, rodent GLP-1R (Mus musculus, UniProt O35659); details: cited from earlier work
T1 sequence (O35659 22-463): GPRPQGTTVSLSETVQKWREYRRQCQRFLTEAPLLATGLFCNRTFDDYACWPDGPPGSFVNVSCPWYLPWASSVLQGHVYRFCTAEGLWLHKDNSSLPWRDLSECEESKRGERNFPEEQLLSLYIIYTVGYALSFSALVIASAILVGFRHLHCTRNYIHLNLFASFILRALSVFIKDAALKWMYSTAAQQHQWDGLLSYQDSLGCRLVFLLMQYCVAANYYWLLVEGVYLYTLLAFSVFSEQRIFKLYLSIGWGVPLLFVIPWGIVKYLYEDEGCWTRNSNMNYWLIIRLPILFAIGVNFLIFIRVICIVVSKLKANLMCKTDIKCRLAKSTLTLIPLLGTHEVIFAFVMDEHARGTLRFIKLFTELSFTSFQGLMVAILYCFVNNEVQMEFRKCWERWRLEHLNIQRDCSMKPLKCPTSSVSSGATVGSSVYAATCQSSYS

humans = details: cited from earlier work

## N#Cc1nn(-c2cc(Cl)c(Oc3n[nH]c(=O)c4ccccc34)c(Cl)c2)c(=O)[nH]c1=O [Compound 9, 2-(3,5-dichloro-4-((4-oxo-3,4-dihydrophthalazin−1-yl)oxy)phenyl)-3,5-dioxo-2,3,4,5-tetrahydro-1,2,4-triazine-6-carbonitrile]
[1]; mouse, in vivo, po, 3 mg/kg
  AUC(0-t): 19000 ng·h/mL
  Cmax: 2480 ng/mL
[1]; mouse, in vivo, po
  exposure (dose proportionality, effect of combination): unaffected when dosed in combination with orforglipron
Male DIO mice [2]
  average food intake: normalized semaglutide-induced reduction in food intake
Male DIO mice [3]
  plasma insulin level: increased
DIO hGLP-1R mice; Day 19, PO QD
  fat mass change from baseline: remained relatively unchanged
  lean mass change from baseline: negligible
DIO hGLP-1R mice
  body weight changes from baseline over time: remained relatively unchanged; also recorded: comparable to a 10-fold higher dose of orforglipron as monotherapy
DIO hGLP-1R mice; PO QD
  terminal subcutaneous fat: not significantly different from mice treated with vehicle
[4]
  uncoupling protein 1 (UCP-1) expression: partially restored the obesity induced lowering of UCP-1
Male DIO mice [5]; after 5 weeks of treatment
  heat production: increased both dark and light-phase heat production
Male DIO mice [5]; assessed after week 4
  energy expenditure (EE): restored energy expenditure to normal (DIO Veh) levels when combined with semaglutide

## Cc1cc(-n2nc3c(c2-n2ccn(-c4ccc5c(cnn5C)c4F)c2=O)[C@H](C)N(C(=O)c2cc4cc([C@H]5CCOC(C)(C)C5)ccc4n2[C@@]2(c4noc(=O)[nH]4)C[C@@H]2C)CC3)cc(C)c1F [orforglipron]
[1]; 0.2 mg/kg daily in mice, equivalent to 6 mg/day in humans
  unbound exposure AUC24h,u: ~0.300 ng·h/mL
[1]; 2 mg/kg daily in mice, equivalent to 45 mg/day in humans
  unbound exposure AUC24h,u: ~1.60 ng·h/mL
[1]; mouse, in vivo, po, 0.2 mg/kg
  AUC(0-t): 543 ng·h/mL
  Cmax: 47.4 ng/mL
[1]; mouse, in vivo, po, 2 mg/kg
  AUC(0-t): 2670 ng·h/mL
  Cmax: 251 ng/mL
[1]; mouse, in vivo, po
  exposure (dose proportionality, effect of combination): increased in a less than dose-proportional manner
[1]; plasma, Day 20, PO QD
  exposure (dose proportionality, effect of combination): largely unaffected when dosed in combination with Compound 9
Rodent GLP-1R
  activity on rodent GLP-1R: inactive
DIO hGLP-1R mice; Day 19, PO QD
  fat mass change from baseline: dose-dependent decrease in fat mass
DIO hGLP-1R mice
  body weight changes from baseline over time: dose-dependent body weight decreases over time
DIO hGLP-1R mice; PO QD
  daily food intake: profoundly reduced in a dose-dependent manner during the first few days
  terminal subcutaneous fat: dose-dependent decrease in subcutaneous fat, although only the high dose was significantly different from vehicle treatment
humans; 12 mg daily dose
  occurrence of total adverse events compared to placebo, OR: 2.49 (95% CI: 1.25, 4.98)
humans; 24 mg daily dose
  occurrence of total adverse events compared to placebo, OR: 2.23 (95% CI: 1.13, 4.43)
humans; 36 mg daily dose
  occurrence of total adverse events compared to placebo, OR: 2.04 (95% CI: 1,08,3.84)
humans; 45 mg daily compared to 12, 24 or 36 mg/day
  change in body weight at week 26: highest change in body weight
humans; 45 mg daily dose
  occurrence of total adverse events compared to placebo, OR: 2.96 (95% CI: 1.41, 6.21)
humans; all doses (12, 24, 36, 45 mg daily)
  total adverse events compared to placebo: significantly higher
